# * marks the point of attachment. Decanoyl = CCCCCCCCCC(=O)*; CH2Cl = ClC*
# Tests used:
# Recombinant furin [1] = molecular target: T1, Recombinant furin (Homo sapiens, UniProt P09958); assay: biochemical; type: biochemical
# Experimental: To determine if the peptides described herein have an effect on the activity of PC enzymes which are involved in a condition or disorder such as fibrosis, the effect of the peptides on furin activity in vitro was measured as percent inhibition of cleavage of the furin substrate fluorogenic t-butyloxycarbonyl (Boc)-RVRR-7-amino-4-methylcoumarin (MCA).
# All in vitro enzyme studies were performed at room temperature in a final volume of 50-100 μl in 96-well flat-bottom black plates. The buffer consisted of 100 mM HEPES, 1 mM CaCl2, 0.5% TritonX-100, and 1 mM 2-β-mercaptoethanol pH 7.5. Assays were performed using Boc-RVRR-MCA as fluorogenic substrate at 100 μM. Recombinant furin (0.8 U of activity) was incubated with Boc-RVRR-MCA in the presence or absence of varying concentrations of synthetic peptides D-9Rac/am (SEQ ID NO. 15), L-Bel1 (SEQ ID NO. 3), or L-9K (SEQ ID NO. 6). One unit of activity is defined as the amount of furin that can release 1 μmol of MCA from the fluorogenic Boc-RVRR-MCA per min at 30° C. The release of highly fluorescent 7-amino 4-methyl coumarin (MCA) from the Boc-RVRR-MCA was monitored by a spectrofluorometer instrument at excitation and emission wavelengths of 370 nm/460 nm. […]
# PC-12 cells = assay: Actin cytoskeleton organization, phalloidin-TRITC staining; type: cell-based, rat; settings: 2 to 10 μM, 30 minutes, labeled or unlabeled
# Experimental: Slides with PC-12 cells were prepared as stated previously for localization studies. Briefly, cells were exposed to FITC-labeled or unlabeled peptides, at various concentrations, for 30 minutes, fixed and then permeabilized. Subsequently, F-actin was fluorescently labeled with phalloidin-Tetramethyl Rhodamine Iso-Thiocyanate (TRITC) (Sigma Aldrich) conjugate, diluted on saponin buffer (0.25 μg/ml), and nuclear staining with DAPI dihydrochloride (Sigma Aldrich) (0.02 μg/ml), at room temperature for maximum 30 minutes. Finally, slides were mounted and sealed, and stored at 4° C. protected from light. The effect of the peptides to actin polymerization was analyzed by confocal microscopy, as described before.
# PC12 cells [2] = assay: Inhibition of [3H]norepinephrine neurosecretion by PC12 cells; type: cell-based, rat
# Experimental: Using the neurosecretion assay described above, peptides fused to the TAT-PTD (L-TAT) were tested for inhibition of neurotransmitters and compared to use of L-TAT alone (SEQ ID NO: 3). In vitro screening for synthetic peptides capable of efficiently and selectively blocking neurotransmitter release in the PC12 cell line grown under defined conditions was performed.
# PC12 cells were washed with DMEM-WM (Dulbecco's Modified Eagle Medium (GIBCO cat. no. 31968) completed with 25 units of penicillin and streptomycin each) and loaded for 1-2 h with [^3H] norepinephrine (NE; 0.5 μCi/ml) in DMEM-CM (DMEM-WM complemented with 6% horse serum and 6% fetal calf serum). Cells were washed for 1 h with DMEM-WM, and then washed 2 times at 5-minute intervals. Basal release was determined by a 15-minutes incubation with CaSB-glucose 5 mM K^+ (CaSB-glucose: 140 mM NaCl, 5 mM KCl, 2 mM CaCl2, 11 mM glucose, [pH 7.4]). The peptides were added to the cells at defined concentrations after loading with NE but before induction of secretion. Cells were depolarized with 85 mM K^+ (CaSB-glucose with Na^+ reduced accordingly) for 15 minutes to determine stimulated release. Superfusate (1 ml) was removed to tubes. Adherent cells were solubilized in CaSB-glucose-0.1% Triton (1 ml/well). The quantities of released and non-released radiolabeled neurotransmitter were determined by liquid scintillation counting of cleared superfusates and cell lysates, respectively. Total uptake was calculated by addition of released and retained radioactivity, and the percentage release was as calculated (released counts/total uptake counts)×100. Results were also expressed as percent inhibition of neurosecretion.
# rat lung fibroblast (LF) = assay: Cell contraction/relaxation on wrinkling silicone substrate, live videomicroscopy; type: cell-based; settings: 10 μM and 50 μM
# Experimental: To study the effect(s) of the peptides on muscle cells, which associate with neurosecretory cells at neuromuscular junctions, peptides were cultured with rat lung fibroblast (LF) grown over wrinkling substrate (silicon) which can mimic the effects of contraction. These cells have a myofibroblastic phenotype, e.g., production of TGF-β, which make them suitable for cellular contraction/relaxation studies.
# Wrinkling silicone substrates were prepared as essentially described previously (Harris, et al., Science. 208:177-179, 1980; Hinz, et al., Mol Biol Cell. 12:2730-41, 2001). Briefly, 50 μl of silicone (poly dimethyl siloxane; 30.000 centistokes, Dow Corning, Midland, Mich.) were deposited onto a 35 mm round glass coverslip at the bottom of a self-made observation chamber, which was centrifuged at 1.000 rpm for 2 minutes to spread the viscous fluid. The silicone surface was then crosslinked by passing it through a Bunsen flame; a flaming time of 1 second produced a surface stiffness that restricted wrinkle formation to fibroblasts with high contractile force (Hinz et al., supra). The polymerized silicone surface was finally coated with 10 μg/ml collagen type I (Sigma) for 2 hours at 37° C. Lung fibroblast cells were seeded at a density of 3.5×10^3 cells/cm^2 and cultured for 1-2 days before the experiment. […]
# [3] = 10% concentration in oil/water emulsion, 30-day treatment; cited from earlier work
# Recombinant furin [4] = molecular target: T1, Recombinant furin; settings: CALBIOCHEM; cited from earlier work
# PC12 cells [5] = type: cell-based, rat
# Experimental: […]. Very little toxicity was present at 24 hours, and cytotoxicity at 48 hours was only slightly greater than at 24 hours. Cytotoxicity generally dipped to approximately 90% live cells when peptides were administered at 500 μM.
# furin = molecular target: T2, furin (Rattus norvegicus, UniProt P23377); type: biochemical; settings: EDTA 50 mM, EGTA 50 mM, Dec-RVKR-CMK 50 μM
# T2 construct: Furin activity was constitutively detected in PC12-ES cells; endogenous in cells; host or cells: PC12-ES cells (lysate)
# Experimental: To monitor the intracellular furin activity, 80% confluent PC12-ES cells were washed twice with ice-cold phosphate-buffered saline (PBS1×) by centrifugation at 800×g for 5 minutes at 4° C., resuspended in 100 mM HEPES, 1 mM CaCl2, 0.5% TritonX-100, and 1 mM 2-β-mercaptoethanol, pH 7.5, sonicated 6 times at 4° C. for 10 seconds, and then centrifuged at 8000×g for 20 minutes at 4° C. The protein concentration in the samples was determined using a bicinchonic acid protein assay kit (Pierce Chemical Co.).
# Intracellular furin activity was measured with a furin-specific fluorogenic substrate, t-butyloxycarbonyl (Boc)-[…]-7-amino-4-methylcoumarin (MCA). Briefly, the cell lysate (20 μg-60 μg of protein) prepared as described above was incubated with 100 μM Boc-RVRR-MCA in a 96-well flat-bottom black plate for at least 6 hours at room temperature and fluorescence measured by excitation at 365 nm and emission at 450 nm.
# PC12-ES cells = assay: Evoked neurotransmitter secretion by undifferentiated PC12-ES cells, furin inhibitor and arginine rich peptides; type: cell-based, rat; settings: for inhibition of evoked neurotransmitter secretion by PC12-ES cells: potassium 80 mM, 15 minutes
# T1 sequence (P09958 108-794): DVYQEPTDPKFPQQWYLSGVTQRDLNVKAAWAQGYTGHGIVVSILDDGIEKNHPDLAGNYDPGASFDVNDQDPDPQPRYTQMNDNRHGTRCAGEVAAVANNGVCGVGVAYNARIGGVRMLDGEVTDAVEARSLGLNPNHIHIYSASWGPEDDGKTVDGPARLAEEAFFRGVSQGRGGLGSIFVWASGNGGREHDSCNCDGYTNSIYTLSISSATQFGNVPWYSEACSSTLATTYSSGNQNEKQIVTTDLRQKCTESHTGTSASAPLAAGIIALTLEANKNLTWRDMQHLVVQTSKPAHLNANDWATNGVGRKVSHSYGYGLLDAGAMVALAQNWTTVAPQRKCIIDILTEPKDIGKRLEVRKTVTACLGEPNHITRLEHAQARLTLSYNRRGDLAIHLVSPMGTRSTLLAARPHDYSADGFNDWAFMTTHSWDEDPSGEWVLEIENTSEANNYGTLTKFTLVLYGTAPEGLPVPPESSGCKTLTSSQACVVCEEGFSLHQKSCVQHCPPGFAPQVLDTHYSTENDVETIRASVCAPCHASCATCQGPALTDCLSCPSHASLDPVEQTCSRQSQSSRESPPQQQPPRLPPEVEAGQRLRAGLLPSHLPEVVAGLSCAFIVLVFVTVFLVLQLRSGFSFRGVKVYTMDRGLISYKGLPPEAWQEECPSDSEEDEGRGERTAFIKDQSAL
# T2 sequence (P23377 108-793): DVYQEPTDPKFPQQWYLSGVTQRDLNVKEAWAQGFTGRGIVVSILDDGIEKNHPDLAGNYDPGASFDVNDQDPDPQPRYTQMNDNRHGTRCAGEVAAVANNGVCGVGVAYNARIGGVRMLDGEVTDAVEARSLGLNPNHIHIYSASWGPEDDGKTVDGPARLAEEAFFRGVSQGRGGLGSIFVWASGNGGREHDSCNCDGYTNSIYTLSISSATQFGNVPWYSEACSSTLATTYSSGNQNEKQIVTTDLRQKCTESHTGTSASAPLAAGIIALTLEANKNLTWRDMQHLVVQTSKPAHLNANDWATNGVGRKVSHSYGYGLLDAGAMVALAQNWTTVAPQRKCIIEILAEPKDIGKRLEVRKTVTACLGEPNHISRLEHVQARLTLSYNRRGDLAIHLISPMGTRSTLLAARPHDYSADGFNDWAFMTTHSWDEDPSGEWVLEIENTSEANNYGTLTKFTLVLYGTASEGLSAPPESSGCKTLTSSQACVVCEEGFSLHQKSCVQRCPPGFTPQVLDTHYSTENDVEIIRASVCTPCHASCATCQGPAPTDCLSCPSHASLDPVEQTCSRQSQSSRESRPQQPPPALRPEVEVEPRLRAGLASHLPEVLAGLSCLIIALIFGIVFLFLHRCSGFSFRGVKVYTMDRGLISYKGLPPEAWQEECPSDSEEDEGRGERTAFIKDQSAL
substance,measurement,setting,value
9K-L: SEQ ID NO: 6 (GYGKKKKKKKKKG; Synthetic peptide 9K-L),concentration for complete blockade of cleavage of Boc-RVRR-MCA by furin,Recombinant furin [1],> 3.5 µM
same,effect on actin content and organization,PC-12 cells,No effect
same,inhibition of neurotransmitter-evoked secretion,"PC12 cells [2]; concentration not given, peptide alone",approximately 20%
same,relaxing effect on lung myofibroblasts on silicon substrate,rat lung fibroblast (LF),not observed
Ac-Glu-Glu-Met-Gln-Arg-Arg-NH2 (Ac-EEMQRR-NH2) [L-Argireline],reduced wrinkle depth,[3],up to 30%
same,inhibition of secretion,PC12 cells [2]; 50 μM (mixture: 50 μM each),no inhibition
"Decanoyl-Arg-Val-Lys-Arg-CMK (Decanoyl-RVKR-CH2Cl) [FI-I, reference compound]",Ki,Recombinant furin [4],1 nM
same,cytotoxicity (MTT),PC12 cells [5],no marked cytotoxicity
same,inhibition of intracellular furin activity (in words),furin,inhibited
same,inhibition of in vitro furin activity (in words),Recombinant furin [1]; Boc-RVRR-MCA 100 μM as substrate,inhibited
same,dose dependence of inhibition of evoked secretion,PC12-ES cells,dose dependent
same,inhibition of evoked neurotransmitter secretion by PC12-ES cells,PC12-ES cells; 10 μM,12.6%
same,inhibition of evoked neurotransmitter secretion by PC12-ES cells,PC12-ES cells; 100 μM,50%
